These results are taken from patent US4562183A, “Perfluoro-1-azabicyclo(5,3,0)decane compounds useful as blood substitutes” (I.S.C. Chemicals Limited, priority 1982, dated 1985).

The structures appear in SMILES notation. Where two headings read alike, the source gives them in different places.

The nature of data set [1]: Solubilities at 25° C. of perfluoro-1-azabicyclo(5,3,0)decane in solvents. It is filed as physicochemical. The text has this: Solubility of perfluoro-1-
azabicyclo(5,3,0)decane in […]

Data set [2] can be described thus: Emulsion forming capacity with Pluronic F68, standing overnight. In kind it is physicochemical. Particulars: for Emulsification time to form emulsion: Pluronic F68 in deionised water, high speed mixer; for Separation (creaming) of the emulsion: standing at room temperature overnight, Pluronic F68. On the procedure: To 10 ml. of perfluoro-1-azabicyclo(5,3,0)decane (ABCD) was added 10 ml. of solution made by dissolving 8.0 g of a non-ionic, polyoxyethylene-polyoxypropylene surfactant ('Pluronic F68', RTM) in 220 ml. of deionised water. The mixture was emulsified for a few minutes using a high speed mixer to form an emulsion having the appearance of diluted milk.
In a comparison test, an emulsion was formed using perfluorodecalin. An emulsion of similar appearance to that formed with ABCD required about 10 minutes emulsification.

A short description of data set [3]: Oxygen solubility in fluorocarbon. It is filed as physicochemical. The settings on record: oxygen-saturated at 20° C.; corrected for vapour pressure of fluorocarbon. On the procedure: A portion of 20 ml. of ABCD was degassed by boiling and cooled to 20° C. while being bubbled with oxygen gas. The oxygen-saturated liquid was then degassed under vacuum and the gas evolved was collected and its volume measured at a known temperature and pressure. After allowing for the vapour pressure of the fluorocarbon, the solubility of oxygen was calculated to be in the range 45±10 mls of O2 (at 760 mm Hg & 0° C.) per 100 ml. of fluorocarbon. The solubility of oxygen in ABCD is thus adequate to permit the use of this fluorocarbon as an oxygen carrier for medical use.

Data set [4] in a line: Toxicity: weight gain of rats administered emulsion. Particulars: Wistar strain male rats, ABCD emulsion, 4 g/kg as ABCD. It is filed as in vivo. On the procedure:
(§1) ABCD was evaluated as candidate for an artificial blood substitute from the aspects of toxicity, feasibility of emulsification and excretion rate from the organs.

The nature of data set [5]: Stability of emulsion with yolk phospholipids. The settings on record: heating at 100° C. for 30 minutes and storage at 4° C. and 25° C. for 2 weeks. It is filed as physicochemical. The method, then: In order to evaluate the feasibility of emulsification, ABCD was emulsified with yolk phospholipids by using a Manton-Gaulin homogenizer and the stability to heating at 100° C. for 30 minutes and storage at 4° C. and 25° C. for 2 weeks were examined.

Data set [6] is described as follows: Excretion rate from the organs. In kind it is in vivo, rats. On the procedure:
as §1

Data set [7] is described as follows: Retention in body organs with time (gas chromatography). Particulars: rat, 0.32 mL/100 g, 0.32 ml. fluorocarbon per 100 gm body weight; for concentration at 120 h: 5 Days; for concentration at 168 h: 7 Days (Av. of 2); for concentration at 240 h: 10 Days; for concentration at 504 h: 21 Days. In kind it is in vivo, rats. On the procedure: 4. RETENTION OF PERFLUORO-1-AZABICYCLO(5,3,0)DECANE BODY ORGANS WITH TIME
Gas chromatography results--rats injected with emulsion of ABCD (0.32 ml. fluorocarbon per 100 gm body weight). The following residual fluorocarbon concentrations were observed. (In mg. fluorocarbon/gm tissue).

The nature of data set [8]: Base stability of fluorination product. In kind it is physicochemical.
The conditions of data set [9]: aqueous media; cited from earlier work.
The conditions of data set [10]: in vivo; cited from earlier work.
[11] abbreviates: heart, read-out: Residual fluorocarbon concentration, heart.
[12] abbreviates: kidney, read-out: Residual fluorocarbon concentration, kidney.
Where [13] appears, read: liver, read-out: Residual fluorocarbon concentration, liver.
[14] abbreviates: lung, read-out: Residual fluorocarbon concentration, lung.
Setting [15] is: spleen, read-out: Residual fluorocarbon concentration, spleen.

As for `FC1(F)N2C(F)(F)C(F)(F)C(F)(F)C2(F)C(F)(F)C(F)(F)C(F)(F)C1(F)F` (stereo not shown) [ABCD, perfluoro-1-azabicyclo(5,3,0)decane], the Solubility in acetone in data set [1] (acetone) is 6.84 g in 100 g solvent. The Solubility in hexane entry in data set [1] (hexane) was “miscible”. In addition, the Solubility in methanol in [1] (methanol) was 1.36 g in 100 g solvent. For the same compound, the Solubility in trichloro-trifluoroethane result in data set [1] (trichloro-trifluoroethane) is “miscible”. In addition, the Solubility in water result in [1] (water) is on record as “hardly soluble”. Besides, in data set [2], the “Emulsification time to form emulsion” value was “a few minutes”. In addition, in data set [2], the “Separation (creaming) of the emulsion” value was “minor amount of separation ('creaming')”. In addition, the Solubility of oxygen in data set [3] was 45±10 mls of O2 (at 760 mm Hg & 0° C.) per 100 ml. of fluorocarbon. Besides, the Weight gain result in [4] is recorded as “gained weight favourably”. In [5], the Stability of emulsion result is “acceptably stable”. The “Amount detected in all organs” value in data set [6] (2 weeks after injection) is “only trace amounts”. Moreover, in data set [6] (after injection), the “Elimination from the organs” value was “very rapidly eliminated from the organs”. For the same compound, the concentration at 120 h in data set [7] (setting [11]) was found to be 130000 ng/g; in data set [7] (setting [12]), 170000 ng/g; in data set [7] (setting [13]) it was 1.18e+07 ng/g; in [7] (setting [14]), 560000 ng/g; in [7] (setting [15]), 4.35e+07 ng/g. Besides, the concentration at 168 h in data set [7] (setting [11]) came to 450000 ng/g; in [7] (setting [12]) it was 100000 ng/g; in [7] (setting [13]), 6.73e+06 ng/g; in data set [7] (setting [14]), 100000 ng/g; in data set [7] (setting [15]), 2.23e+07 ng/g. Also, the concentration at 240 h in data set [7] (setting [11]) came out at 260000 ng/g; in data set [7] (setting [12]), 190000 ng/g; in [7] (setting [13]), 2.51e+06 ng/g; in data set [7] (setting [14]) it was 160000 ng/g; in [7] (setting [15]), 1.2e+08 ng/g. Besides, the concentration at 336 h came out at 3.69e+06 ng/g in [7] (14 Days (* not Av. of 2), spleen, read-out: Residual fluorocarbon concentration, spleen); 180000 ng/g in data set [7] (14 Days (Av. of 2), heart, read-out: Residual fluorocarbon concentration, heart); 150000 ng/g in [7] (14 Days (Av. of 2), kidney, read-out: Residual fluorocarbon concentration, kidney); 380000 ng/g in data set [7] (14 Days (Av. of 2), liver, read-out: Residual fluorocarbon concentration, liver); 150000 ng/g in data set [7] (14 Days (Av. of 2), lung, read-out: Residual fluorocarbon concentration, lung). The concentration at 504 h turned out to be 160000 ng/g in data set [7] (setting [11]); 160000 ng/g in [7] (setting [12]); 40000 ng/g in data set [7] (setting [13]); 150000 ng/g in data set [7] (setting [14]); 1.12e+06 ng/g in data set [7] (setting [15]).

For the compound `FC(F)(F)C1(F)N2C(F)(F)C(F)(F)C(F)(F)C2(F)C(F)(F)C(F)(F)C(F)(F)C1(F)F` (stereo not shown) [perfluoro-1-aza-2-methyl(5,3,0)decane], in data set [8], the Stability to base result is reported as “base-stable”.

As for `FC1(F)C(F)(F)C(F)(F)C2(F)C(F)(F)C(F)(F)C(F)(F)C(F)(F)C2(F)C1(F)F` (stereo not shown) [perfluorodecalin, reference compound], in [2], the “Emulsification time to form emulsion” value is “about 10 minutes” and the “Separation (creaming) of the emulsion” value is given as “pronounced creaming”. Further, the Emulsion stability result in data set [9] is recorded as “does not easily give a stable emulsion in aqueous media”.

Turning to `FC(F)(F)C(F)(F)C(F)(F)N(C(F)(F)C(F)(F)C(F)(F)F)C(F)(F)C(F)(F)C(F)(F)F` [perfluorotripropylamine], the Emulsion stability result in [9] is listed as “gives a more stable emulsion than perfluorodecalin”. Besides, the “Retention time in the body” value in data set [10] is given as “longer retention time in the body”.
